Assay results taken from PubChem BioAssay AID624129 (Sanford-Burnham Center for Chemical Genomics, 2012).
The source made the active and inactive calls. No rule for the calls is given here.

Assays:
Experiment in all cases: CXCR6 receptor antagonists, dose response, cell-based, beta-arrestin, DiscoveRx, APJ panel, uHTS hits (AID 624129)
[1] = target: C-C chemokine receptor type 6 (Homo sapiens) (UniProt P51684); conditions: CXCR6 beta-arrestin (DiscoveRx) antagonist cell assay
[2] = target: C-X-C chemokine receptor type 6 (Homo sapiens) (UniProt O00574); conditions: CXCR6 beta-arrestin (DiscoveRx) antagonist cell assay; for inhibition: CXCR6, run 1, dose range 2, at 80 µM (top of the series)
C-X-C chemokine receptor type 6 (Homo sapiens), sequence (O00574 whole entry, looked up): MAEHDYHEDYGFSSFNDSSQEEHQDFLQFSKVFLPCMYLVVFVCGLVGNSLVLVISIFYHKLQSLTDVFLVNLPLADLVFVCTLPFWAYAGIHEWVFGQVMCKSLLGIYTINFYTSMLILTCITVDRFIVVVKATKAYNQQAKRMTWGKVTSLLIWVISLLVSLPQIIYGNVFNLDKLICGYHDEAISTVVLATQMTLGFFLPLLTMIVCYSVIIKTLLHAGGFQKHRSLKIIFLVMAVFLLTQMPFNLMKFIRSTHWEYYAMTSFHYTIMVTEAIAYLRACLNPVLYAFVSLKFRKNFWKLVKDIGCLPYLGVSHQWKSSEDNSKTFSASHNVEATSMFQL

[3] = target: Beta-galactosidase (Escherichia coli) (UniProt Q8VNN2); conditions: CXCR6 beta-arrestin (DiscoveRx) antagonist cell assay, b-galactosidase
Beta-galactosidase (Escherichia coli), sequence (Q8VNN2 whole entry, looked up): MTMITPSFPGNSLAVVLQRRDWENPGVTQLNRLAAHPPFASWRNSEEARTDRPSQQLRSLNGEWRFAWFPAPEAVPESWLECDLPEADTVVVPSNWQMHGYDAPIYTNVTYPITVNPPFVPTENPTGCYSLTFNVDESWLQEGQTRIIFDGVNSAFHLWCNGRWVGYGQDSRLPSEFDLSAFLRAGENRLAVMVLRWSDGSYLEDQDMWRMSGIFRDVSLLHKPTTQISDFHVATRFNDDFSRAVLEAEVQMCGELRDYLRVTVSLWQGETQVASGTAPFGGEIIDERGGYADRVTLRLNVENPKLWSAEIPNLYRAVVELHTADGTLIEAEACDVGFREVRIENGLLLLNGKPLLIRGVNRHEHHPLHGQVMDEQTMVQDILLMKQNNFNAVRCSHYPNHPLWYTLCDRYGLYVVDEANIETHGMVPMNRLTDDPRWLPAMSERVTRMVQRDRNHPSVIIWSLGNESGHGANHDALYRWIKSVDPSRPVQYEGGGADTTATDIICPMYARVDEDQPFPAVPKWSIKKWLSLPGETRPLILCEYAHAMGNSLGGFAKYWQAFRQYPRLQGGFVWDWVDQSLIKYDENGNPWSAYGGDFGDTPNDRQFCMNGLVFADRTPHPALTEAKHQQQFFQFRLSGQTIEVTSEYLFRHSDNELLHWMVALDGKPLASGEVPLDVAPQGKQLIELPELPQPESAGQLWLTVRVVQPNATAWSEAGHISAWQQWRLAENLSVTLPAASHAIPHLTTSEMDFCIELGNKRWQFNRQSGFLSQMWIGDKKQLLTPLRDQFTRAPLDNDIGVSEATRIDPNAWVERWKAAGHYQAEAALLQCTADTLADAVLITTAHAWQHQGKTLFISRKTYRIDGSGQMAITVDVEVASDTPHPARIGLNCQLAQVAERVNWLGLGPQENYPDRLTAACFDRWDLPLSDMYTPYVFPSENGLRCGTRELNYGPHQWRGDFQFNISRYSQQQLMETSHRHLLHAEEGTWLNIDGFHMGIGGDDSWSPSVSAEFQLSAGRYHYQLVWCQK

[4] = target: Apelin receptor (Homo sapiens) (UniProt P35414); conditions: CXCR6 beta-arrestin (DiscoveRx) antagonist cell assay, APJ
[5] = CCR6, dose range 1, mean IC50 across replicates
[6] = CXCR6, dose range 1, mean IC50 across replicates
[7] = dose range 1, mean IC50 across replicates

SMILES	IC50 ([1]; CCR6, dose range 1)	IC50 [1, 5]	IC50 ([1]; CCR6, run 2, dose range 1)	IC50 ([2]; CXCR6, dose range 1)	IC50 [2, 6]	IC50 ([2]; CXCR6, run 1, dose range 2)	IC50 ([2]; CXCR6, run 2, dose range 1)	IC50 ([2]; CXCR6, run 2, dose range 2)	IC50 ([3]; dose range 1)	IC50 [3, 7]	IC50 ([4]; dose range 1)	IC50 [4, 7]	IC50 ([4]; run 2, dose range 1)	IC50 ([4]; run 3, dose range 1)	inhibition [2]
C/C(=N\NC(=O)Cc1ccc(Cl)cc1)c1ccccn1	3.22 µM	3.45 µM	3.69 µM	3.73 µM	3.75 µM	3.29 µM	4.52 µM	3.45 µM	> 80 µM (inactive)	> 80 µM	3.41 µM	14 µM	4.94 µM	33.7 µM	–
Cc1[nH]n(-c2ccccc2)c(=S)c1C=NCCCN=Cc1c(C)[nH]n(-c2ccccc2)c1=S	0.999 µM	1.43 µM	1.86 µM	1.92 µM	1.55 µM	1.07 µM	2.07 µM	1.14 µM	> 80 µM (inactive)	> 80 µM	2.44 µM	3.07 µM	3.21 µM	3.56 µM	–
Oc1c(Cl)cc(Cl)c2cccnc12	2.48 µM	2.71 µM	2.94 µM	4.45 µM	4.17 µM	–	3.89 µM	–	> 80 µM (inactive)	> 80 µM	3.23 µM	3.82 µM	4.91 µM	3.34 µM	90.2%
CN(CCO)c1cc(Sc2nc3ccccc3s2)c2nonc2c1[N+](=O)[O-]	6 µM	5.65 µM	5.3 µM	6.85 µM	7.46 µM	8.56 µM	6.34 µM	8.1 µM	25.6 µM	25.6 µM	10.3 µM	8.8 µM	7.74 µM	8.35 µM	–
COc1ccc([N+](=O)[O-])c(S(=O)(=O)c2ccc(Cl)cc2)n1	69.3 µM	62.5 µM	55.8 µM	inactive	51.9 µM	–	61.5 µM	–	> 80 µM (inactive)	> 80 µM	47.2 µM	49.4 µM	51.5 µM	> 80 µM	75.8%
COc1ccc(C)c(-n2c(=O)n(Cc3ccccc3)c(=O)c3[nH]cnc32)c1	8.5 µM	9.2 µM	9.91 µM	inactive	12.3 µM	10.9 µM	14 µM	7.56 µM	8.42 µM	8.42 µM	13.5 µM	13.1 µM	15.7 µM	9.95 µM	–
Cc1cc(S(=O)(=O)c2ccc(Cl)cc2)nc(S(=O)(=O)c2ccc(Cl)cc2)c1C#N	–	30.5 µM	30.5 µM	inactive	18.3 µM	–	8.04 µM	–	inactive	50.1 µM	22.9 µM	37 µM	31.3 µM	56.9 µM	93.1%
CC(=O)OCCCNc1cc(Sc2nc3ccccc3s2)c2nonc2c1[N+](=O)[O-]	6.38 µM	30 µM	53.6 µM	–	8.69 µM	8.09 µM	> 80 µM	9.29 µM	> 80 µM (inactive)	> 80 µM	> 80 µM (inactive)	> 80 µM	> 80 µM	> 80 µM	–
O=[N+]([O-])c1c(Nc2cccc(O)c2)cc(Cl)c2nonc12	12.2 µM	13.3 µM	14.3 µM	inactive	13.8 µM	–	11.3 µM	–	> 80 µM (inactive)	> 80 µM	18 µM	19.1 µM	17 µM	22.2 µM	113%
O=C(Nc1nc(-c2ccccn2)cs1)c1cc(Cl)ccc1[N+](=O)[O-]	–	> 80 µM	> 80 µM	> 80 µM (inactive)	> 80 µM	–	> 80 µM	–	> 80 µM (inactive)	> 80 µM	–	> 80 µM	> 80 µM	> 80 µM	-48.8%
C=C1C(=O)c2sccc2C(c2ccc(OC)c(OC)c2)C1COC(C)=O (centres undefined)	4.58 µM	5.3 µM	6.02 µM	6.54 µM	6.19 µM	5.73 µM	6.78 µM	5.7 µM	> 80 µM (inactive)	> 80 µM	7.28 µM	6.69 µM	6.03 µM	6.75 µM	–
Cc1ccc(/C=N/NC(=S)N2CCOCC2)cc1	3.58 µM	4.25 µM	4.93 µM	4.96 µM	3.83 µM	3.14 µM	4.53 µM	2.7 µM	> 80 µM (inactive)	> 80 µM	4.87 µM	5.15 µM	5.63 µM	4.93 µM	–
C=CCn1nc([N+](=O)[O-])nc1Sc1cccc2cccnc12	39 µM	35.3 µM	31.6 µM	inactive	59.6 µM	–	> 80 µM	–	> 80 µM (inactive)	> 80 µM	75.1 µM	49.3 µM	36 µM	36.8 µM	82.2%
O=C(Nc1nnc(-c2cccs2)o1)c1cccc(C(F)(F)F)c1	–	> 80 µM	> 80 µM	> 80 µM (inactive)	> 80 µM	–	> 80 µM	–	> 80 µM (inactive)	> 80 µM	–	> 80 µM	> 80 µM	> 80 µM	-55.9%
COc1ccc(-n2c(O)c(/C=N/Nc3nc(C)cc(C)n3)c3ccccc3c2=O)cc1OC	31.3 µM	29.2 µM	27.2 µM	> 80 µM (inactive)	> 80 µM	–	> 80 µM	–	> 80 µM (inactive)	> 80 µM	–	49.6 µM	> 80 µM	49.6 µM	118%
O=C1C=CC(=O)N1c1cccc(-c2ccccc2)c1	47 µM	47 µM	> 80 µM	9.66 µM	9.66 µM	–	> 80 µM	–	> 80 µM (inactive)	> 80 µM	–	22.8 µM	22.8 µM	> 80 µM	21.2%
Cc1ccc(C(=O)/C=C/C(=O)c2ccc(C)cc2)cc1	–	> 80 µM	> 80 µM	> 80 µM (inactive)	> 80 µM	–	> 80 µM	–	> 80 µM (inactive)	> 80 µM	–	> 80 µM	> 80 µM	> 80 µM	19.4%
O=C1C=CC(=O)N1c1ccc(-c2nc3ccccc3o2)cc1	2.84 µM	3.1 µM	3.36 µM	4.9 µM	4.9 µM	–	> 80 µM	–	> 80 µM (inactive)	> 80 µM	5.45 µM	5.31 µM	5.18 µM	> 80 µM	128%
CC(Oc1ccc(F)cc1)C(=O)Nc1nc(-c2ccccn2)cs1 (centres undefined)	7.82 µM	8.7 µM	9.57 µM	8.77 µM	7.74 µM	5.99 µM	8.41 µM	7.81 µM	> 80 µM (inactive)	> 80 µM	9.28 µM	9.34 µM	8.14 µM	10.6 µM	–
COc1cccc(-n2nc(C#N)c(Cl)cc2=O)c1	6.31 µM	9.54 µM	12.8 µM	inactive	12.6 µM	9.33 µM	13.7 µM	12 µM	> 80 µM (inactive)	> 80 µM	7.86 µM	7.23 µM	7.26 µM	6.56 µM	–
O=[N+]([O-])/C=C/c1c(Cl)cccc1Cl	–	> 80 µM	> 80 µM	> 80 µM (inactive)	> 80 µM	–	> 80 µM	–	> 80 µM (inactive)	> 80 µM	–	14.3 µM	> 80 µM	14.3 µM	54%
N#CC(C#N)=C1C=CC=CN1/C(=C\c1ccccc1Cl)C(=O)c1ccccc1	7.75 µM	6.75 µM	5.76 µM	7.69 µM	9.06 µM	9.82 µM	7.88 µM	10.8 µM	> 80 µM (inactive)	> 80 µM	14.4 µM	14.5 µM	11.7 µM	17.5 µM	–
